Measured values as given in patent US20260226026A1, “COMPOUND AS CTPS1 INHIBITOR” (Hangzhou Innogate Pharma Co., Ltd., priority 2023, published 2026).

Experiments:
[1] = in vivo; set-up: species or system SD rats; settings: male, SD, rat, po
Procedure: Instrumentation: SCIEX Triple Quad 6500+ triple quadrupole liquid chromatography-mass spectrometry system (LC-MS/MS), operating software is Analyst 1.7.2 (Applied Biosystems, USA); ExionLC liquid chromatography system; Microsoft Excel was used for data calculation and processing. Pharmacokinetic parameters were calculated using the statistical moment method with WinNonlin 8.2 software. Key kinetic parameters included Tmax, T1/2, Cmax, AUC0-24 h etc. Column: Synergi 4 μm Fusion-RP 80 Å Luna C18 2 mm*50 mm, 4 μm; Column temperature: 40° C.; Mobile phase A: Water (0.1% formic acid); Mobile phase B: Acetonitrile; Flow rate: 0.8 mL/min; Gradient elution is adopted, the elution gradient is 0.10 min: 15% B; 1.60 min: 95% B; 1.90 min: 95% B; 1.91 min: 15% B; 2.20 min: 15% B. Injection volume: 1 μL.
Animals: 3 male SD rats with a weight range of 200-220 g were purchased and kept in the laboratory of the Experimental Animal Center for 3 days and then used. They were fasted for 12 hours predose and 4 hours after dosing. Drinking water was free during the test. After the rats were gavage, blood samples were taken according to the established time point.
Solvent: 0.4% ethanol+0.4% Tween80+99.2% (0.5% methylcellulose M450). Preparation of the solution for intragastric administration: Compounds were accurately weighed and added to the solvent. The mixture was then subjected to vortex mixing and sonication until a homogeneous suspension was achieved, thereby preparing medicinal solutions of the desired concentrations.
Compound samples: Typically, multiple structurally analogous compounds (with molecular weights differing by more than 2 units) were accurately weighed and administered together (cassette PK). This approach allows for the simultaneous screening of multiple compounds and comparison of their oral absorption rates. Single compound administration was also employed to study the pharmacokinetics of drug samples in rats.
After intragastric administration, blood was collected from the jugular vein at 0.25, 0.5, 1, 2, 4, 8, 10 and 24 hours. Transfer 20 μL of plasma sample (for blank samples and internal standard blank samples, add 20 μL of blank plasma) to a 1.5 mL centrifuge tube, add 200 μL of internal standard solution (50% methanol in acetonitrile (concentration 100 ng/mL)) (for Double blank samples, add 200 μL of 50% methanol in acetonitrile solution). Vortex the samples for 5 minutes, then centrifuge at 14000 rpm and 4° C. for 5 minutes. Transfer 80 μL and add to 80 μL of water, mix uniformly, and submit for LC-MS/MS analysis.
The compounds were accurately weighed to prepare different concentrations, and quantitative analysis on mass spectrometry was performed to establish a standard curve, and then the concentration of the above-mentioned compound in the plasma was tested to obtain its concentration at different time points. All measurement data were collected and processed by relevant software, and the statistical moment method was used to calculate the pharmacokinetic parameters (mainly including kinetic parameters Tmax, T1/2, Cmax, AUC0-24 h etc).

[2] = target: T1, hCTPS1 enzyme (Homo sapiens, UniProt P17812); experiment: Inhibition of CTPS1 enzyme activity (ADP-Glo method); assay type: biochemical; settings: hCTPS1, 90 min reaction at 25° C.
T1 sequence (P17812 1-591): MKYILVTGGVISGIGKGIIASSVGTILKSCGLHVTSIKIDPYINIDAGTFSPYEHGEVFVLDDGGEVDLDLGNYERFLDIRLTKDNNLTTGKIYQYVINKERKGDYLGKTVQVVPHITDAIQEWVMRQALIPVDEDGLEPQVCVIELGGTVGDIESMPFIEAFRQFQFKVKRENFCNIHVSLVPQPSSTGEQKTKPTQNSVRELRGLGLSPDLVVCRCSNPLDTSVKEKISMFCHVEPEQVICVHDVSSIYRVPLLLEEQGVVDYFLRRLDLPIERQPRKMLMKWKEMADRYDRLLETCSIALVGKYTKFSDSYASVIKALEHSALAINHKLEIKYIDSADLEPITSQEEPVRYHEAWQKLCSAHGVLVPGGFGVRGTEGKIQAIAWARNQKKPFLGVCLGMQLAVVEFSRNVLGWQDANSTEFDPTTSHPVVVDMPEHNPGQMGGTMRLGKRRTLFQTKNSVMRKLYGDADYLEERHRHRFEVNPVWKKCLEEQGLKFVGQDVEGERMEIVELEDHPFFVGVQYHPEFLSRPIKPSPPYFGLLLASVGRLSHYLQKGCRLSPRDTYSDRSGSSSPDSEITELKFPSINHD
Procedure: The enzyme activity of CTPS1 was tested using the ADP-Glo method. Compounds were serially diluted in DMSO with 3-fold gradients across ten concentrations. Transfer 0.1 μL of diluted compound to a 384-well plate, centrifuge at 1000 rpm for 1 min. Add 2.5 μL of hCTPS1 enzyme working solution, centrifuge at 1000 rpm for 1 min, and incubate at 25° C. for 10 min. Add 2.5 μL of ATP & UTP solution and incubate at 25° C. for 10 min. Add 5 μL of substrate solution to initiate the reaction and incubate at 25° C. for 90 min. Add 10 μL of ADP-Glo solution to the 384-well plate, centrifuge at 1000 rpm for 1 min, incubate at 25° C. for 40 min, add 20 μL of detection solution, centrifuge at 1000 rpm for 1 min, and incubate at 25° C. for 60 min. […] were read using a BMG microplate reader. Inhibition rate (%) was calculated as follows: Inhibition rate (%)=[(DMSO control well signal−Compound well signal)/(DMSO control well signal−Blank control well signal)]×100%. IC50 values for compounds were analyzed by nonlinear regression in XLFit 5.5.0 software using the formula: Y=Bottom+(Top−Bottom)/(1+10^((LogIC50−X)*HillSlope)) where Y is the inhibition rate and X is the log value of compound concentration.

[3] = tested on: Jurkat cells; experiment: Inhibition of Jurkat cell proliferation (CellTiter-Glo, 72 hours); assay type: cell-based; settings: Homo sapiens; Jurkat cells, 72 hours, CellTiter-Glo; read-out: Jurkat (IC50)
Procedure: Select Jurkat cells in good growth condition and digest them with trypsin. Add fresh culture medium, mix thoroughly, and centrifuge at 1000 rpm for 5 minutes. Seed the cells into a 96-well plate at a density of 10,000 cells per well, and incubate overnight in a 37° C. incubator. On the following day, take out of the culture plate and treat the cells with compounds prepared in a five-fold serial dilution. Return the plate to the 37° C. incubator and continue incubation for 72 hours.
After incubation, bring out the cell culture plate and equilibrate it to room temperature. Add 100 μL of CellTiter-Glo reagent to each well, shake in the dark for 2 minutes, and incubate for 10 minutes. Measure the luminescence using an Enspire plate reader. Calculate the inhibition rate using the following formula: Inhibition rate (%)=(1−(RLU_compound−RLU_blank)/(RLU_DMSO−RLU_blank))×100%. Plot the dose-response curve and calculate the IC50 value using XLFit.

AUC(0-t) ([1]; 2 mg/kg) [ng·h/mL] | Cmax ([1]; 2 mg/kg) [ng/mL] | Tmax ([1]; 2 mg/kg) [h] | half-life ([1]; 2 mg/kg) [h] | IC50 [2] [nM] | IC50 [3] [nM] | AUC(0-t) ([1]; 1.5 mg/kg) [ng·h/mL] | Cmax ([1]; 1.5 mg/kg) [ng/mL] | Tmax ([1]; 1.5 mg/kg) [h] | half-life ([1]; 1.5 mg/kg) [h] | AUC(0-t) ([1]; 3 mg/kg) [ng·h/mL] | Cmax ([1]; 3 mg/kg) [ng/mL] | Tmax ([1]; 3 mg/kg) [h] | half-life ([1]; 3 mg/kg) [h] | SMILES
2160 | 1020 | 0.25 | 1.13 | < 25 | < 15 |  |  |  |  |  |  |  |  | CCOc1cncc(-c2ccc(NC(=O)C3(c4ccnc(NS(=O)(=O)C5CC5)n4)CCC(=C(F)C4COC4)CC3)nc2)n1 (stereo not drawn) [Compound 50]
 |  |  |  | < 25 | < 15 | 7640 | 1210 | 2 | 2.01 |  |  |  |  | CCOc1cncc(-c2ccc(NC(=O)C3(c4ccnc(NS(=O)(=O)C5CC5)n4)CCC(=C(F)C4CCOCC4)CC3)nc2)n1 (stereo not drawn) [Compound 52]
 |  |  |  | < 25 | < 15 |  |  |  |  | 25100 | 4540 | 2.17 | 2.53 | CCOc1cncc(-c2ccc(NC(=O)C3(c4ccnc(NS(=O)(=O)C5CC5)n4)CCC(=CCC(C)(C)O)CC3)nc2)n1 (stereo not drawn) [Compound 58]
 |  |  |  | < 25 | < 15 |  |  |  |  | 37600 | 4820 | 2.33 | 3.03 | CCOc1cncc(-c2ccc(NC(=O)C3(c4ccnc(NS(=O)(=O)C5CC5)n4)CCC(=CCC4COC4)CC3)nc2)n1 (stereo not drawn) [Compound 63]
 |  |  |  | < 25 | < 15 |  |  |  |  | 40800 | 6810 | 2.17 | 1.83 | CCOc1cncc(-c2ccc(NC(=O)C3(c4cncc(NS(=O)(=O)C5CC5)n4)CCC(=C(F)F)CC3)nc2)n1 (stereo not drawn) [Compound 68]
11300 | 2330 | 1.83 | 1.89 | < 50 | < 15 |  |  |  |  |  |  |  |  | CCOc1cncc(-c2ccc(NC(=O)C3(c4ccnc(NS(=O)(=O)C5CC5)n4)CCC(=C(F)CC4COC4)CC3)nc2)n1 (stereo not drawn) [Compound 69]
